Values joined by “and” are separate entries in the source; they are usually repeats but may differ in a detail not shown here. Equal entries are not always repeated. After the bases stand the sugars from the 5' end (letter, count) and the backbone: PS all phosphorothioate, else s phosphorothioate and o phosphodiester by linkage. Methylation of C is not given here. e = 2'-O-(2-methoxyethyl) (MOE); k = constrained ethyl (cEt); d = 2'-deoxy (DNA)

One data set deals with IRF4. The following applies: ASO, MM.1R, 0.0625 µM.
Take CTGAGTTGTACAGGAC (sugars k3 d10 k3, PS): the target mRNA inhibition was 4%.

For the sequence TCAGAAATCACGAGGT (sugars k3 d10 k3, PS), the target mRNA inhibition was -11%.

The data set is the same for the next values; noted with them: ASO, MM.1R, 0.074 µM.
With “TCAGTTTGTGAAGCAT (sugars kkdddddddddkekek, PS)”, the target mRNA inhibition was found to be 9%.

“GGAAGTTTACACTGGA (sugars kkkdddddddddkeke, PS)”: the target mRNA inhibition stood at 22%.

Staying with this data set, now noted: ASO, MM.1R, 0.222 µM.
Turning to “TCAGTTTGTGAAGCAT (sugars kkdddddddddkekek, PS)”, the target mRNA inhibition worked out at 27%.

“GGAAGTTTACACTGGA (sugars kkkdddddddddkeke, PS)”: the target mRNA inhibition amounted to 46%.

Still in this data set, the particulars now being: ASO, MM.1R, 0.25 µM.
Take CTGAGTTGTACAGGAC (sugars k3 d10 k3, PS): the target mRNA inhibition amounted to 22%.

As for TCAGAAATCACGAGGT (sugars k3 d10 k3, PS), the target mRNA inhibition is -5%.

Staying with this data set, now noted: ASO, MM.1R, 0.666 µM.
Take “TCAGTTTGTGAAGCAT (sugars kkdddddddddkekek, PS)”: the target mRNA inhibition came to 46%.

“GGAAGTTTACACTGGA (sugars kkkdddddddddkeke, PS)”: the target mRNA inhibition is 74%.

Still in this data set, the particulars now being: ASO, MM.1R, 1 µM.
For the sequence “AGTGATGTCAGGTTTT (sugars kddddddddddkekek, PS)”, the target mRNA inhibition was determined as 25%.

Consider “CTGCTTGAGGTTTTCC (sugars k2 d9 e3 k2, PS)”, for which the target mRNA inhibition amounted to 31%.

On to GCCCGGCCGGGCCTTC (sugars k3 d10 k3, PS), for which the target mRNA inhibition was -4%.

On to “GTAGTATGAGAAACGG (sugars k3 d9 k3 e1, PS)”, for which the target mRNA inhibition is 40%.

As for “GTAGTATGAGAAACGG (sugars e1 k2 d9 k2 e2, PS)”, the target mRNA inhibition is 29%.

With TTGCTAGATTCTCCCT (sugars k3 d10 k3, PS), the target mRNA inhibition turned out to be 16%.

As for ATGTTGCATAGGCATC (sugars k3 d10 k3, PS), the target mRNA inhibition was determined as 10%.

As to TAATCCACAATCAGCA (sugars k3 d10 k3, PS), the target mRNA inhibition was -27%.

On to CTACACAGGCTAATCA (sugars k3 d10 k3, PS), for which the target mRNA inhibition came out at 4%.

As for “TCAGTTTGTGAAGCAT (sugars kkdddddddddkekek, PS)”, the target mRNA inhibition amounted to 58%.

Turning to GGACTAAGGACAGCTG (sugars k3 d10 k3, PS), the target mRNA inhibition stood at 13%.

CTGAGTTGTACAGGAC (sugars k3 d10 k3, PS): the target mRNA inhibition was 55% and 52%.

Take “TAGTATGAGAAACGGC (sugars kddddddddddkekek, PS)”: the target mRNA inhibition amounted to 24%.

Consider “TACTGCTTGAGGTTTT (sugars kkkddddddddkekek, PS)”, for which the target mRNA inhibition was -8%.

As to “GGAAGTTTACACTGGA (sugars kkkdddddddddkeke, PS)”, the target mRNA inhibition came out at 78%.

Take “AAGCTTGATAAAGGCT (sugars kdddddddddkekeke, PS)”: the target mRNA inhibition came to 2%.

For “GATTATATACTGGTTG (sugars kdddddddddkekeke, PS)”, the target mRNA inhibition was found to be 12%.

In the case of “ACCTCAGTTTGTGAAG (sugars kdddddddddkekeke, PS)”, the target mRNA inhibition was found to be 16%.

In the case of ATGGTATTTTTCCGTT (sugars k3 d10 k3, PS), the target mRNA inhibition is 32% and 43%.

Take GGGTGGCATCATGTAG (sugars k3 d10 k3, PS): the target mRNA inhibition came out at 27%.

As for “GAAGTTTACACTGGAT (sugars kdddddddddkekeke, PS)”, the target mRNA inhibition was found to be 11%.

Take “AGGCACATCAATGTTT (sugars kkdddddddddkdkdk, PS)”: the target mRNA inhibition is 4% and 19%.

“AAGTGTCTAAAGTCCC (sugars kddddddddddkekek, PS)”: the target mRNA inhibition is -1%.

As for “GCAGTGATGTCAGGTT (sugars kkkdddddddddkeke, PS)”, the target mRNA inhibition amounted to 56%.

Regarding AACTAGTCGACAGCTA (sugars k3 d10 k3, PS), the target mRNA inhibition was -7%.

Consider “CTATAGTGTTCCAGGA (sugars e1 k2 d9 k2 e2, PS)”, for which the target mRNA inhibition is 8%.

TTCACACTGCCGTGAT (sugars k3 d10 k3, PS): the target mRNA inhibition was -12%.

Turning to “CGTGTGCTTGCCAAGC (sugars kkddddddddddkeke, PS)”, the target mRNA inhibition is 55% and 45%.

For the sequence “AGCTTGATAAAGGCTG (sugars kkkddddddddkekek, PS)”, the target mRNA inhibition was -8%.

In the case of “GTGATGTCAGGTTTTC (sugars kkdddddddddkekek, PS)”, the target mRNA inhibition turned out to be 40%.

Turning to GTTACTCACGAGCACC (sugars k3 d10 k3, PS), the target mRNA inhibition was -17%.

The data set is the same for the next values; noted with them: ASO, MM.1R, 2 µM.
With “TCAGTTTGTGAAGCAT (sugars kkdddddddddkekek, PS)”, the target mRNA inhibition turned out to be 73%.

As to “GGAAGTTTACACTGGA (sugars kkkdddddddddkeke, PS)”, the target mRNA inhibition was 91%.

The same data set, now with this note: ASO, MM.1R, 4 µM.
Turning to CTGAGTTGTACAGGAC (sugars k3 d10 k3, PS), the target mRNA inhibition was found to be 81%.

TCAGAAATCACGAGGT (sugars k3 d10 k3, PS): the target mRNA inhibition was determined as 37%.

The data set is the same for the next values; noted with them: ASO, SK-MEL-28, 4 µM.
For the sequence CATCCTGCTTCCAGTG (sugars k3 d10 k3, PS), the target mRNA inhibition was 30%.

Take AGCCGCCGGCACAGGC (sugars k3 d10 k3, PS): the target mRNA inhibition was found to be 1%.

TGATAAAGGCTGAACT (sugars k3 d10 k3, PS): the target mRNA inhibition is 41%.

With CTTTAACAAGTCCTCA (sugars k3 d10 k3, PS), the target mRNA inhibition stood at 52%.

In the case of AAGTCATTGCTCTTGT (sugars k4 d8 k4, PS), the target mRNA inhibition is 28%.

As to GCCCACTGAGTGTGCA (sugars k3 d10 k3, PS), the target mRNA inhibition was determined as 10%.

Regarding AAGGAGGTAGTGGCCC (sugars k3 d10 k3, PS), the target mRNA inhibition amounted to 47%.

On to CTTCACTGTTAGCTAC (sugars k3 d10 k3, PS), for which the target mRNA inhibition worked out at 51%.

Turning to AATGACTTAGTCAGAA (sugars k3 d10 k3, PS), the target mRNA inhibition turned out to be 27%.

For the sequence TTACTAGGTGCTTGTT (sugars k3 d10 k3, PS), the target mRNA inhibition came to 50%.

Turning to GGTTTCAGTTGTAAAT (sugars k3 d10 k3, PS), the target mRNA inhibition stood at 58%.

Consider GCTGCCACTGGTAACT (sugars k3 d10 k3, PS), for which the target mRNA inhibition turned out to be 26%.

Regarding AGAAGCACTGGCATTG (sugars k3 d10 k3, PS), the target mRNA inhibition amounted to 45%.

On to CGACAGCTAAAGAACA (sugars k3 d10 k3, PS), for which the target mRNA inhibition turned out to be 37%.

In the case of TACCAACGACAGCATA (sugars k3 d10 k3, PS), the target mRNA inhibition amounted to 61%.

On to GCCTTGAAGAGCGCGG (sugars k3 d10 k3, PS), for which the target mRNA inhibition amounted to 9%.

Regarding TGTAGTATGAGAAACG (sugars k3 d10 k3, PS), the target mRNA inhibition came to 69%.

Take TCACGAAACACAGTCT (sugars k3 d10 k3, PS): the target mRNA inhibition was determined as 68%.

Turning to TCCCTAGGTCATACCC (sugars k3 d10 k3, PS), the target mRNA inhibition was determined as 58%.

As for ACTTTGTACGGGTCTG (sugars k3 d10 k3, PS), the target mRNA inhibition amounted to 39%.

Take GCGAAGAATTTTAGCA (sugars k3 d10 k3, PS): the target mRNA inhibition stood at 12%.

TTCCAGCAAGACCTAA (sugars k3 d10 k3, PS): the target mRNA inhibition amounted to 27%.

Turning to CTCCTTTTTTGGCTCC (sugars k3 d10 k3, PS), the target mRNA inhibition came out at 19%.

As to CTTCCAAGACAGCTTC (sugars k3 d10 k3, PS), the target mRNA inhibition worked out at 63%.

For GAGTAAACTTGGCTGT (sugars k3 d10 k3, PS), the target mRNA inhibition is 38%.

Turning to CAATACTGTAAGGGCT (sugars k3 d10 k3, PS), the target mRNA inhibition stood at 56%.

As to TCTGAGCAGAACGAGG (sugars k3 d10 k3, PS), the target mRNA inhibition came to 47%.

For CCTGGTCCAGGTTGCT (sugars k3 d10 k3, PS), the target mRNA inhibition is 26%.

As for TTTTATGGACCACGCA (sugars k3 d10 k3, PS), the target mRNA inhibition was 31%.

In the case of TAGGAGTGTAACTGAG (sugars k3 d10 k3, PS), the target mRNA inhibition is 37%.

CCTTTAGTGTCGCCAT (sugars k3 d10 k3, PS): the target mRNA inhibition was 58%.

In the case of TAAACAGTGCCCAAGC (sugars k3 d10 k3, PS), the target mRNA inhibition came to 41%.

For the sequence CGGCTCCTCCTCCTTT (sugars k3 d10 k3, PS), the target mRNA inhibition was 11%.

On to GATAGTTAAGTACTTG (sugars k3 d10 k3, PS), for which the target mRNA inhibition stood at 49%.

As to GTTCCTGTCACCTGGC (sugars k3 d10 k3, PS), the target mRNA inhibition was determined as 49%.

Regarding TCACCTGGCAACCTGC (sugars k3 d10 k3, PS), the target mRNA inhibition worked out at 25%.

Consider AACTTTTACCTGGTAT (sugars k3 d10 k3, PS), for which the target mRNA inhibition was 28%.

As to ATTAAAGAGTGGTACA (sugars k3 d10 k3, PS), the target mRNA inhibition was -7%.

For the sequence ATTCTTAGAATGCATA (sugars k4 d8 k4, PS), the target mRNA inhibition was 33%.

For TGGCAGTGGAGCTCCA (sugars k3 d10 k3, PS), the target mRNA inhibition came out at 46%.

On to TCTGAATTGTTACTAA (sugars k3 d10 k3, PS), for which the target mRNA inhibition amounted to 35%.

On to TGTCAAACCCTACTGG (sugars k3 d10 k3, PS), for which the target mRNA inhibition was found to be 23%.

CTTGAGGTTTTCCTAA (sugars k3 d10 k3, PS): the target mRNA inhibition worked out at 40%.

With CTTATTATTTATGAGC (sugars k3 d10 k3, PS), the target mRNA inhibition was 37%.

For the sequence ATCAATGATGGCAGTC (sugars k3 d10 k3, PS), the target mRNA inhibition is 57%.

Take GTAGGAGTGTAACTGA (sugars k3 d10 k3, PS): the target mRNA inhibition worked out at 41%.

TAGAATGAGAGGTGTC (sugars k3 d10 k3, PS): the target mRNA inhibition was found to be 29%.

TCACCTGAAGGATTTG (sugars k3 d10 k3, PS): the target mRNA inhibition amounted to 25%.

For the sequence TCAAACACTAATACCT (sugars k3 d10 k3, PS), the target mRNA inhibition was found to be 25%.

As for GACTTCGGGAGATACG (sugars k3 d10 k3, PS), the target mRNA inhibition stood at 14%.

On to TGAGAAAGCATGGCTC (sugars k3 d10 k3, PS), for which the target mRNA inhibition turned out to be 40%.

For CACGGACGAACGCGCA (sugars k3 d10 k3, PS), the target mRNA inhibition was -2%.

CATTGGAGGAGGGTTG (sugars k3 d10 k3, PS): the target mRNA inhibition is -2%.

As to GCCTTAATGTTCAGCT (sugars k3 d10 k3, PS), the target mRNA inhibition amounted to 49%.

Consider AATAGAGGAATGGCGG (sugars k3 d10 k3, PS), for which the target mRNA inhibition came out at 53%.

On to GGCACAATTCTCTGAG (sugars k3 d10 k3, PS), for which the target mRNA inhibition was 43%.

Take TTTATGGACCACGCAG (sugars k3 d10 k3, PS): the target mRNA inhibition was determined as 38%.

Turning to GTTGAACCCATCTTGA (sugars k3 d10 k3, PS), the target mRNA inhibition was 16%.

Values taken from the OligoGym collection.
